Measurements from publication PMC10525456, “A Comparative Study on Cyclodextrin Derivatives in Improving Oral Bioavailability of Etoricoxib as a Model Drug: Formulation and Evaluation of Solid Dispersion-Based Fast-Dissolving Tablets” (Biomedicines, 2023).
Converted amounts (≈) assume the structure as drawn. Read-outs that look alike come from different tables or passages of the source.

Test: Saturation solubility
Assay type: physicochemical
Experimental: For 48 h, a known excess of the samples (etoricoxib solid dispersions, physical mixtures, and pure etoricoxib) containing 10 mg of etoricoxib was mixed with 10 mL of phosphate buffer (pH = 6.8) and 0.1 N HCL (pH = 1.2) and placed in a constant-temperature rotating water bath (Gyromax—Frederick, MD, USA) set to 50 rpm (37 ± 0.5 °C). The samples were then filtered, diluted, and analyzed at 233 nm using a UV-VIS spectrophotometer (Shimadzu). The concentration of etoricoxib was then estimated. The experiment was carried out three times.

- solubility at 48 h (0.1 N HCl, pH 1.2, pure drug, 0.1 N HCL pH 1.2, 37 °C, read-out: Saturation solubility of pure etoricoxib in 0.1 N HCL pH(1.2)): 73.8 µg/mL (≈ 206 µM)
- solubility at 48 h (phosphate buffer, pH 6.8, pure drug, phosphate buffer pH 6.8, 37 °C, read-out: Saturation solubility of pure etoricoxib in Phosphate buffer pH(6.8)): 71.1 µg/mL (≈ 198 µM)
- Saturation solubility of pure etoricoxib in Phosphate buffer pH(6.8) (pure drug, phosphate buffer pH 6.8, 37 °C, 48 h): 71.12 μg/mL ± 1.23
SMILES: Cc1ccc(-c2ncc(Cl)cc2-c2ccc(S(C)(=O)=O)cc2)cn1 [Pure Etoricoxib, 5-chloro-6’-methyl-3-[4-(methylsulfonyl)phenyl]-2,3-bipyridine]
